Source: patent US20170273985A1, “TRICYCLIC DERIVATIVE” (Sunovion Pharmaceuticals Inc., priority 2014, published 2017)

Target: PDE1B (Homo sapiens, UniProt Q01064)
Test: In vitro HTRF PDE1 inhibition assay (PDE1B)
Format: biochemical
Source text: An exemplary procedure for the in vitro Homogenous Time Resolved Fluorescence assay, which can be used to determine the inhibitory action of compounds of the invention toward PDE1 or its isoforms, follows. The HTRF PDE1 assay utilized the HTRF (Homogenous Time Resolved Fluorescence) technology, which is based on the competition between unlabeled cyclic nucleotide and cyclic nucleotide labeled with XL665 for the binding to cyclic nucleotide-specific antibody labeled with cryptate. The HTRF signal is thus inversely proportional to the concentration of cyclic nucleotide being measured. Since phosphodiesterases break down cyclic nucleotides the HTRF signal was used to determine PDE activity. The Cisbio cGMP HTRF assay kit (Cat no: 62GM2PEC) was utilized. Cyclic GMP was diluted to 200 nM in HTRF assay buffer (1 mM CaCl2, 10 mM MgCl2, 10 mM Tris-HCl, 0.1% BSA, pH 7.4). 10 μl of compound or DMSO was diluted in 200 nM cyclic GMP solution and added to wells of a 96 well white plate to give 100 nM cyclic GMP in 1% DMSO final concentration. PDE (1A3, 1B or IC) was diluted to 2× working concentration in HTRF assay buffer with 2 μg/ml calmodulin, and 10 μl was added to initiate the reaction. The plate was then incubated for 45 minutes at 37° C. d2-Labelled cyclic GMP and anti-cGMP cryptate were diluted in 50 mM phosphate buffer, 0.8 M KF, 1% Triton X100, 0.2% BSA, pH 7.0. Following incubation 10 μl d2-cGMP, then 10 μl anti cGMP cryptate were added to each well and the plate was incubated for 45 minutes at room temperature. The plate was then read on Perkin Elmer Victor at 2 different FRET readings ex/emm 340 nm/665 nm and 340 nm/615 nm. Compounds having an IC50 of <1 μM, are denoted as +++. Compounds having an IC50 of 1−10 μM, are denoted as ++. Compounds having an IC50 of 10-100 μM, are denoted as +.

Row | IC50 (Table 22) [nM] | IC50 (Table 25) [nM] | SMILES
1 | < 1000 |  | CCCN1c2nn3c(C4CCOCC4)ncc3c(=O)n2C[C@@H]1c1ccc(CC)nc1 [Example 90]
2 | 1000 to 10000 |  | CCCN1c2nn3c(C4CCOCC4)ncc3c(=O)n2C[C@H]1c1ccc(CC)nc1 [Example 91]
3 | 1000 to 10000 |  | CCc1ccc([C@H]2Cn3c(nn4c(C5CCOCC5)ncc4c3=O)N2CC(C)C)cn1 [Example 92]
4 | 10000 to 100000 |  | CCc1ccc([C@@H]2Cn3c(nn4c(C5CCOCC5)ncc4c3=O)N2CC(C)C)cn1 [Example 93]
5 | 1000 to 10000 |  | CCc1ccc(C2Cn3c(nn4c(C(C)C)ncc4c3=O)N2CC)cn1 (stereo not shown) [Example 95]
6 | 1000 to 10000 |  | CCCN1c2nn3c(C(C)C)ncc3c(=O)n2C[C@@H]1c1ccc(CC)nc1 [Example 96]
7 | 1000 to 10000 |  | CCCN1c2nn3c(C(C)C)ncc3c(=O)n2CC1c1ccc(CC)nc1 (stereo not shown) [Example 97]
8 | 1000 to 10000 |  | CCc1ccc(C2Cn3c(nn4c(C(C)C)ncc4c3=O)N2CC(C)C)cn1 (stereo not shown) [Example 98]
9 | 1000 to 10000 |  | CCc1ccc(C2Cn3c(nn4c(C(C)C)ncc4c3=O)N2CC(C)C)cn1 (stereo not shown) [Example 99]
10 | < 1000 |  | CC(C)c1ncc2c(=O)n3c(nn12)N(CCCCO)CC3 [Example 100, 1-(4-Hydroxybutyl)-8-isopropyl-2,3-dihydro-1H,5H-diimidazo[2,1-c:5′,1′-f][1,2,4]triazin-5-one]
11 | < 1000 |  | CC(C)c1ncc2c(=O)n3c(nn12)N(CCCCCO)CCC3 [Example 101, 1-(5-Hydroxypentyl)-9-isopropyl-1,2,3,4-tetrahydro-6H-imidazo[5,1-f]pyrimido[2,1-c][1,2,4]triazin-6-one]
12 | < 1000 |  | CC(C)c1ncc2c(=O)n3c(nn12)N(CCCCCO)CC3 [Example 102]
13 | < 1000 |  | CC(C)c1ncc2c(=O)n3c(nn12)N(CCCCCCO)CC3 [Example 103]
14 | < 1000 |  | CC(C)c1ncc2c(=O)n3c(nn12)N(CCOCCO)CC3 [Example 104]
15 | < 1000 |  | CC(C)c1ncc2c(=O)n3c(nn12)N(CCCCO)CCC3 [Example 105]
16 | 1000 to 10000 |  | CC(C)c1ncc2c(=O)n3c(nn12)N(CCOCCO)CCC3 [Example 107]
17 | < 1000 |  | O=c1c2cnc(C3CCOCC3)n2nc2n1CCN2CCCCCO [Example 108]
18 | < 1000 |  | O=c1c2cnc(C3CCOCC3)n2nc2n1CCCN2CCCCCO [Example 109]
19 | < 1000 |  | CC(C)c1ncc2c(=O)n3c(nn12)N(CCCC(O)CO)CC3 (stereo not shown) [Example 110, 1-(4,5-Dihydroxypentyl)-8-isopropyl-2,3-dihydro-1H,5H-diimidazo[2,1-c:5′,1′-f][1,2,4]triazin-5-one]
20 | < 1000 |  | CC(C)c1ncc2c(=O)n3c(nn12)N(CCCC(O)CO)CCC3 (stereo not shown) [Example 111, 1-(4,5-Dihydroxypentyl)-9-isopropyl-1,2,3,4-tetrahydro-6H-imidazo[51-f]pyrimido[2,1-c][1,2,4]triazin-6-one]

Row | IC50 (Table 22) [nM] | IC50 (Table 25) [nM] | SMILES
21 | 1000 to 10000 |  | CC(C)c1ncc2c(=O)n3c(nn12)N(CC1CCN(C)CC1)CCC3 [Example 112, 9-Isopropyl-1-[(1-methyl-4-piperidinyl)methyl]-1,2,3,4-tetrahydro-6H-imidazo[5,1-f]pyrimido[2,1-c][1,2,4]triazin-6-one]
22 | 1000 to 10000 |  | CC(C)c1ncc2c(=O)n3c(nn12)N(CCC1CCNCC1)CCC3 [Example 113, 9-Isopropyl-1-[2-(4-piperidinyl)ethyl]-1,2,3,4-tetrahydro-6H-imidazo[5,1-f]pyrimido[2,1-c][1,2,4]triazin-6-one]
23 | < 1000 |  | CC(C)c1ncc2c(=O)n3c(nn12)N(CCC1CCN(C)CC1)CCC3 [Example 114, 9-Isopropyl-1-[2-(1-methyl-4-piperidinyl)ethyl]-1,2,3,4-tetrahydro-6H-imidazo[5,1-f]pyrimido[2,1-c][1,2,4]triazin-6-one]
24 | < 1000 |  | CC(C)c1ncc2c(=O)n3c(nn12)N(CCc1cccc(C#N)c1)CCC3 [Example 115, 3-(2-(9-Isopropyl-6-oxo-2,3,4,6-tetrahydro-1H-imidazo[1,5-f]pyrimido[2,1-c][1,2,4]triazin-1-yl)ethyl)benzonitrile]
25 | < 1000 |  | N#Cc1ccc(CCN2CCCn3c2nn2c(C4CCOCC4)ncc2c3=O)cc1 [Example 116, 4-{2-[6-Oxo-9-(tetrahydro-2H-pyran-4-yl)-3,4-dihydro-6H-imidazo[5,1-f]pyrimido[2,1-c][1,2,4]triazin-1(2H)-yl]ethyl}benzonitrile]
26 | 10000 to 100000 |  | N#Cc1cccc(CCN2CCCn3c2nn2c(C4CCOCC4)ncc2c3=O)c1 [Example 117]
27 | < 1000 |  | N#Cc1cccc(CCCN2CCCn3c2nn2c(C4CCOCC4)ncc2c3=O)c1 [Example 118]
28 | < 1000 |  | N#Cc1ccc(CCCN2CCCn3c2nn2c(C4CCOCC4)ncc2c3=O)cc1 [Example 119]
29 | < 1000 |  | CC1CN(CCCc2ccccn2)c2nn3c(C(C)C)ncc3c(=O)n2C1 (stereo not shown) [Example 121]
30 | < 1000 |  | CC(C)c1ncc2c(=O)n3c(nn12)N(CCCc1cccc(F)c1)CCC3 [Example 122]
31 | 1000 to 10000 |  | CC(C)c1ncc2c(=O)n3c(nn12)N(C(=O)CC1CCOCC1)CCC3 [Example 123, 9-Isopropyl-1-(tetrahydro-2H-pyran-4-ylacetyl)-1,2,3,4-tetrahydro-6H-imidazo[5,1-f]pyrimido[2,1-c][1,2,4]triazin-6-one]
32 | 10000 to 100000 |  | CC(C)c1ncc2c(=O)n3c(nn12)N(C(=O)CCC1CCOCC1)CCC3 [Example 124, 9-Isopropyl-1-(3-(tetrahydro-2H-pyran-4-yl)propanoyl)-3,4-dihydro-1H-imidazo[1,5-f]pyrimido[2,1-c][1,2,4]triazin-6(2H)-one]
33 | 1000 to 10000 |  | CC(C)c1ncc2c(=O)n3c(nn12)N(C(=O)CCN1CCOCC1)CCC3 [Example 125, 9-Isopropyl-1-(3-morpholinopropanoyl)-3,4-dihydro-1H-imidazo[1,5-f]pyrimido[2,1-c][1,2,4]triazin-6(2H)-one]
34 | < 1000 |  | CC(C)c1ncc2c(=O)n3c(nn12)OC(c1ccccc1)CC3 (stereo not shown) [Example 126, 9-Isopropyl-2-phenyl-3,4-dihydroimidazo[5,1-f][1,3]oxazino[2,3-c][1,2,4]triazin-6(2H)-one]
35 | < 1000 |  | CC(C)c1ncc2c(=O)n3c(nn12)OC(c1ccc(Cl)cc1)CC3 (stereo not shown) [Example 127]
36 | 1000 to 10000 |  | COc1cccc(C2CCn3c(nn4c(C(C)C)ncc4c3=O)O2)c1 (stereo not shown) [Example 128]
37 | < 1000 |  | COc1ccc(C2CCn3c(nn4c(C(C)C)ncc4c3=O)O2)cc1 (stereo not shown) [Example 129]
38 | < 1000 |  | CC(C)c1ncc2c(=O)n3c(nn12)OC(Cc1ccccc1)CC3 (stereo not shown) [Example 130]
39 | < 1000 |  | COc1ccc(CC2CCn3c(nn4c(C(C)C)ncc4c3=O)O2)cc1 (stereo not shown) [Example 131]
40 | < 1000 |  | CC(C)c1ncc2c(=O)n3c(nn12)OC(Cc1ccc(Cl)cc1)CC3 (stereo not shown) [Example 132]

Row | IC50 (Table 22) [nM] | IC50 (Table 25) [nM] | SMILES
41 | 1000 to 10000 |  | O=c1c2cnc(C3CCCC3)n2nc2n1CCC(c1ccccc1)C2 (stereo not shown) [Example 134, 3-Cyclopentyl-7-phenyl-8,9-dihydro-6H-imidazo[5,1-f]pyrido[2,1-c][1,2,4]triazin-11(7H)-one]
42 | 1000 to 10000 |  | COc1cccc(C2CCn3c(nn4c(C5CCCC5)ncc4c3=O)C2)c1 (stereo not shown) [Example 135]
43 | 1000 to 10000 |  | COc1ccc(C2CCn3c(nn4c(C5CCCC5)ncc4c3=O)C2)cc1 (stereo not shown) [Example 136]
44 | 1000 to 10000 |  | O=c1c2cnc(C3CCOCC3)n2nc2n1CC(c1ccc(Cl)cc1)C2 (stereo not shown) [Example 138, 7-(4-Chlorophenyl)-3-(tetrahydro-2H-pyran-4-yl)-7,8-dihydro-6H,10H-imidazo[5,1-f]pyrrolo[2,1-c][1,2,4]triazin-10-one]
45 |  | < 1000 | COCCN1CCn2c1nn1c(C(C)C)ncc1c2=O [Example 139]
46 |  | < 1000 | CC(C)c1ncc2c(=O)n3c(nn12)N(CCc1cccnc1)CC3 [Example 140]
47 |  | < 1000 | CC(C)c1ncc2c(=O)n3c(nn12)N(Cc1ccc(Cl)cn1)CC3 [Example 141]
48 |  | < 1000 | O=c1c2cnc(C3CCC3)n2nc2n1CCN2CCCc1ccccn1 [Example 142]
49 |  | < 1000 | O=c1c2cnc(C3CCC3)n2nc2n1CCN2CC1CCOCC1 [Example 143]
50 |  | < 1000 | O=c1c2cnc(C3CCC3)n2nc2n1CCN2Cc1ccc(Cl)cn1 [Example 144]
51 |  | < 1000 | COC(C)c1ncc2c(=O)n3c(nn12)N(CCC(C)(C)C)CC3 (stereo not shown) [Example 145]
52 |  | < 1000 | O=c1c2cnc(C3CCOCC3)n2nc2n1CCN2CCOC(F)(F)F [Example 146]
53 |  | < 1000 | O=c1c2cnc(C3CCOCC3)n2nc2n1CCN2CCc1cccc(F)c1 [Example 147]
54 |  | < 1000 | O=c1c2cnc(C3CCOCC3)n2nc2n1CCN2CCC1CC1 [Example 149]
55 |  | < 1000 | COc1ccccc1CN1CCn2c1nn1c(C3CCOCC3)ncc1c2=O [Example 150]
56 |  | < 1000 | O=c1c2cnc(C3CCOCC3)n2nc2n1CCN2CC1CCC1 [Example 151]
57 |  | < 1000 | O=c1c2cnc(C3CCOCC3)n2nc2n1CCN2CC1CCCC1 [Example 152]
58 |  | < 1000 | COc1ccc(CN2CCn3c2nn2c(C4CCOCC4)ncc2c3=O)cc1 [Example 157]
